Experimental data published in paper PMC8405091, “Microwave-assisted Phospha-Michael addition reactions in the 13α-oestrone series and in vitro antiproliferative properties” (Journal of Enzyme Inhibition and Medicinal Chemistry, 2021).

Legend:
[1] = test system: HeLa cells; assay: MTT antiproliferative assay, HeLa; type: cell-based, human; details: Homo sapiens, 72 h
How it was run: (§1)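 Following overnight seeding, the cells receive compound (10 and 30 µM final) in MEM with 10% FBS and incubate 72 h. MTT is then added for 4 h and the formazan is solubilised in DMSO with shaking at 37 °C.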

[2] = test system: MCF-7 cells; assay: MTT antiproliferative assay, MCF-7; type: cell-based, human; details: Homo sapiens, MCF7, 72 h
How it was run: as §1

[3] = test system: UPCI-SCC-154 cells; assay: MTT antiproliferative assay, UPCI-SCC-154; type: cell-based, human; details: Homo sapiens, 72 h, 72 h
How it was run: as §1

[4] = test system: non-cancerous mouse embryo fibroblast (NIH/3T3) cells; assay: MTT assay on non-cancerous fibroblasts (tumour selectivity); type: cell-based; details: Mus musculus, NIH3T3, 72 h
Procedure: (§2) The antiproliferative properties of the newly synthesized compounds (9–20) and their starting materials (4 and 5) were determined on a panel of human adherent cancer cell lines. MCF-7, MDA-MB-231 and T47D were isolated from breast cancers differing in biochemical background, while A2780 cells were isolated from ovarian cancer. HeLa and SiHa are cervical cancer cell lines positive for HPV-18 and HPV-16, respectively, while C33-A cervical cancer cells are negative for HPV. Moreover, two oropharyngeal cancer cell lines were also utilized: the HPV-negative UPCI-SCC-131 and HPV-16 positive UPCI-SCC-154. The cancer selectivity of compounds was tested on the non-cancerous mouse embryo fibroblast cell line NIH/3T3. All cell lines were purchased from European Collection of Cell Cultures (ECCAC, Salisbury, UK) exception for SiHa and C33-A (American Tissue Culture Collection, Manassas, VA, USA) and HN-SCC-131 and UPCI-SCC-154 (German Collection of Microorganisms and Cell Cultures GmbH, Braunschweig, Germany). Cells were cultivated in minimal essential medium supplemented with 10% fetal bovine serum, 1% non-essential amino acids and an antibiotic–antimycotic mixture. The medium of oropharyngeal cancer cells additionally contained 2.0 mM L-glutamine. All media and supplements were obtained from Lonza Group Ltd., Basel, Switzerland. Near-confluent cancer cells were seeded onto a 96-well microplate at a density of 5,000 cells/well, except for C33-A which were seeded at 10,000/well. After overnight standing, new medium containing the tested compounds at 10 and 30 µM final concentration was added. After incubation for 72 h at 37 °C in humidified air containing 5% CO2, the living cells were assayed by the addition of 20 μL of 5 mg/ml 3-(4,5-dimethylthiazol-2-yl)-2,5-diphenyltetrazolium bromide (MTT) solution. MTT was converted by intact mitochondrial reductase and precipitated as purple crystals during a 4-h contact period. The medium was next removed and the precipitated formazan crystals were dissolved in 100 μL of DMSO during a 60-min period of shaking at 37 ^оC.
All in vitro experiments were carried out twice with five parallels. Stock solutions of the tested substances (10 mM) were prepared in DMSO. […] Cisplatin (Ebewe Pharma GmbH, Unterach, Austria) was used as positive control.

[5] = test system: SiHa cells; assay: MTT antiproliferative assay, SiHa; type: cell-based, human; details: Homo sapiens, 72 h
How it was run: as §1

[6] = test system: panel of human adherent cancer cell lines; assay: MTT antiproliferative assay, whole panel of cell lines; type: cell-based; details: read-out: IC50 (span over the panel)
Procedure: as §2, with “^оC. […]” for “^оC.”

[7] = test system: MDA-MB-231 cells; assay: MTT antiproliferative assay, MDA-MB-231; type: cell-based, human; details: Homo sapiens, MDA-MB-231, 72 h
How it was run: as §1

[8] = test system: T47D cells; assay: MTT antiproliferative assay, T47D; type: cell-based, human; details: Homo sapiens, 72 h
How it was run: as §1

[9] = test system: UPCI-SCC-131 cells; assay: MTT antiproliferative assay, UPCI-SCC-131; type: cell-based, human; details: Homo sapiens, 72 h, 72 h
How it was run: as §1

[10] = test system: A2780 cells; assay: MTT antiproliferative assay, A2780; type: cell-based, human; details: Homo sapiens, A2780, 72 h
How it was run: as §1

[11] = test system: C33-A cells; assay: MTT antiproliferative assay, C33-A; type: cell-based, human; details: Homo sapiens, C-33-A, 72 h
How it was run: as §1

[12] = test system: certain cancer cell lines; parameters: method as in PMID 25845933; details: cited from earlier work
[13] = read-out: Growth inhibition, % ± SEM, 10 μM
[14] = read-out: Growth inhibition, % ± SEM, 30 μM
[15] = read-out: calculated IC50 value
[16] = read-out: Growth inhibition, % ± SEM

## COc1ccc2c(c1)CC[C@@H]1[C@@H]2CC[C@@]2(C)C(=O)[C@H](CP(=O)(c3ccc(C)cc3)c3ccc(C)cc3)C[C@@H]12 [Compound 13, [(3-methoxy-17-oxo-13α-oestra-1,3,5(10)-trien-16α-yl)methyl]di-p-tolylphosphine oxide]
[1]; [13]
  inhibition at 10 µM: < 20%
[1]; [14]
  inhibition at 30 µM: 95.69 ± 0.69%
[1]; [15]
  IC50: 14.3 µM
[2]; read-out: Growth inhibition, % ± SEM, MCF-7, 10 μM, 72 h
  inhibition at 10 µM: < 20%
[2]; read-out: Growth inhibition, % ± SEM, MCF-7, 30 μM, 72 h
  inhibition at 30 µM: 84.9 ± 2.54%
[2]; [15]
  IC50: 14.8 µM
[3]; read-out: Growth inhibition, % ± SEM, UPCI-SCC-154, 10 μM
  inhibition at 10 µM: < 20%
[3]; read-out: Growth inhibition, % ± SEM, UPCI-SCC-154, 30 μM
  inhibition at 30 µM: 75.9 ± 1.93%
[3]; [15]
  IC50: 21.5 µM
[4]; [16]
  inhibition at 10 µM: < 20%
  inhibition at 30 µM: 89.76 ± 0.49%
[4]; [15]
  IC50: 19.3 µM
[5]; [13]
  inhibition at 10 µM: < 20%
[5]; [14]
  inhibition at 30 µM: 92.9 ± 0.85%
[5]; [15]
  IC50: 13.7 µM
[6]
  IC50: 10 to 25 µM
[7]; [16]
  inhibition at 10 µM: < 20%
  inhibition at 30 µM: 95.56 ± 0.67%
[7]; [15]
  IC50: 25.8 µM
[8]; [13]
  inhibition at 10 µM: 26.7 ± 1.95%
[8]; [14]
  inhibition at 30 µM: 89.82 ± 0.68%
[8]; [15]
  IC50: 13.6 µM
[9]; read-out: Growth inhibition, % ± SEM, UPCI-SCC-131, 10 μM
  inhibition at 10 µM: 29.9 ± 1.21%
[9]; read-out: Growth inhibition, % ± SEM, UPCI-SCC-131, 30 μM
  inhibition at 30 µM: 97.02 ± 0.43%
[9]; [15]
  IC50: 12.3 µM
[10]; read-out: Growth inhibition, % ± SEM, A2780, 10 μM, 72 h
  inhibition at 10 µM: < 20%
[10]; read-out: Growth inhibition, % ± SEM, A2780, 30 μM, 72 h
  inhibition at 30 µM: 97.77 ± 0.35%
[10]; [15]
  IC50: 23.8 µM
[11]; read-out: Growth inhibition, % ± SEM, C33-A, 10 μM
  inhibition at 10 µM: < 20%
[11]; read-out: Growth inhibition, % ± SEM, C33-A, 30 μM
  inhibition at 30 µM: 96.31 ± 0.46%
[11]; [15]
  IC50: 14.5 µM

## CCc1ccc(-c2cn([C@H]3C[C@H]4[C@@H]5CCc6cc(OCc7ccccc7)ccc6[C@H]5CC[C@@]4(C)[C@@H]3O)nn2)cc1 [Compound 28]
[12]
  IC50: low micromolar range
